Results from patent US20210163471A1, “PROGRANULIN MODULATORS AND METHODS OF USING THE SAME” (ARKUDA THERAPEUTICS, priority 2017, published 2021).
Like-named read-outs stand apart in the source and are kept apart here.

Test system: BV-2 (mouse microglia) cells
Assay: progranulin secretion from BV-2 cells, mouse progranulin ELISA of conditioned media
Format: cell-based
Details: for EC50: BV-2 cells, 16 hours incubation, 8-point curves starting at 10 μM
Procedure: BV-2 cells are split the day before plating into a 96 well plate format at approximately 80%. Cells should be plated the day before and allowed for 1 hour attachment period and for 16 hour incubation. […] Standard ELISA kits to measure PGRN are available from vendors such as Adipogen, R&D, and Biovendor.
Compound potency was determined by measuring progranulin secretion from BV-2 (mouse microglia) cells. BV-2 cells were grown in RPMI with 2 mM L-glutamine supplemented with 10% fetal bovine serum. On the day of the assay, cells were plated in 96-well plates at a density of 30,000 cells/well in RPMI (Roswell Park Memorial Institute media)/L-glutamine supplemented with 2% Fetal clone serum II (plating media) and left to adhere for 1 hour. Following attachment to the plate, media was replaced with treatment (8-point curves in half-log dilutions starting at 10 μM) in plating media and incubated for 16 hours. Secreted progranulin was measured from a 1:10 dilution of the conditioned media using the R&D Systems mouse progranulin ELISA kit (cat #DY2557) and following the manufacturer's instructions.

[1] = assay run v1, read-out: PRGN v1 (EC50, progranulin secretion)
[2] = assay run v2 (same protocol, different assay), read-out: PRGN v2 (EC50, progranulin secretion)
[3] = Mus musculus, BV-2, 16 h, assay run v1, read-out: PRGN v1 (EC50, progranulin secretion)
[4] = Mus musculus, assay run v1, read-out: PRGN v1 (EC50, progranulin secretion)
[5] = Mus musculus, assay run v2 (same protocol, different assay), read-out: PRGN v2 (EC50, progranulin secretion)
[6] = Mus musculus, BV-2, 16 h, assay run v2 (same protocol, different assay), read-out: PRGN v2 (EC50, progranulin secretion)

`COc1ccc([C@@H]2c3ccccc3CCN2C(=O)O[C@@H]2CN3CCC2CC3)cn1` [Compound 1029] showed an EC50 [1] greater than 10 µM and an EC50 [2] greater than 10 µM.
`COc1ccc([C@H]2c3ccccc3CCN2C(=O)O[C@@H]2CN3CCC2CC3)cn1` [Compound 1028] gave an EC50 [1] greater than 10 µM and an EC50 [2] greater than 10 µM.
With `O=C(O[C@@H]1CN2CCC1CC2)N1CCc2ccccc2[C@@H]1c1cc2ccccc2s1` [Compound 1036] the EC50 [1] was greater than 3.16 µM and the EC50 [2] was greater than 10 µM.
With `CC1(C)[C@@H](OC(=O)N2CCc3ccccc3[C@@H]2c2ccc(F)cc2)C2CCN1CC2` [Compound 1144] the EC50 [2] was greater than 10 µM.
Work on `O=C(N[C@@H]1CN2CCC1CC2)N1CCc2ccccc2[C@@H]1c1ccncc1` [Compound 1077] yielded an EC50 [3] greater than 10 µM.
`O=C(C[C@@H]1CN2CCC1CC2)N1CCc2ccccc2[C@@H]1c1ccc(F)cc1` [Compound 1058] was tested, and the EC50 [4] was 0.22 µM.
Work on `O=C(O[C@@H]1CN2CCC1CC2)N1CCc2ccccc2[C@@H]1CS(=O)(=O)c1ccccc1` [Compound 1030] yielded an EC50 [4] greater than 10 µM and an EC50 [5] greater than 10 µM.
`O=C(C[C@@H]1CN2CCC1CC2)N1CCc2ccccc2[C@H]1c1ccc(OC2CC2)cc1` [Compound 1069] gave an EC50 [3] greater than 10 µM and an EC50 [6] greater than 10 µM.
For `O=C(O[C@@H]1CN2CCC1CC2)N1CCc2ccccc2[C@@H]1c1ccc(-n2ccnc2)cc1` [Compound 1006], the EC50 [4] was 5.7 µM.
`O=C(N[C@@H]1CN2CCC1CC2)N1CCc2ccccc2[C@@H]1c1ccccc1` [Compound 1047] gave an EC50 [3] of 0.7 µM.
`O=C(O[C@@H]1CN2CCC1CC2)N1CCc2ccccc2[C@@H]1c1ccc(-n2cncn2)cc1` [Compound 1018] showed an EC50 [4] greater than 10 µM and an EC50 [5] greater than 10 µM.
Work on `O=C(O[C@@H]1CN2CCC1CC2)N1CCc2ccccc2[C@H]1CS(=O)(=O)c1ccccc1` [Compound 1031] yielded an EC50 [4] greater than 10 µM and an EC50 [5] greater than 10 µM.
With `O=C(N[C@@H]1CN2CCC1CC2)N1CCc2cccnc2[C@@H]1c1ccc(Cl)cc1` [Compound 1121] the EC50 [3] was greater than 10 µM and the EC50 [6] was 5.22 µM.
With `O=C(C[C@@H]1CN2CCC1CC2)N1CCc2ccccc2[C@@H]1c1ccc(-n2cncn2)cc1` [Compound 1054] the EC50 [3] was greater than 10 µM.
`CC(C)Oc1ccc([C@H]2c3ccccc3CCN2C(=O)N[C@@H]2CN3CCC2CC3)cc1` [Compound 1087] gave an EC50 [3] greater than 10 µM.
For `CS(=O)(=O)c1ccc([C@H]2c3ccccc3CCN2C(=O)O[C@@H]2CN3CCC2CC3)cc1` [Compound 1001, (S)—((S)-quinuclidin-3-yl)-1-(4-(methylsulfonyl)phenyl)-3,4-dihydroisoquinoline-2(1H)-carboxylate], the EC50 [4] was greater than 10 µM.
For `CC1(C)[C@@H](OC(=O)N2CCc3ccccc3[C@@H]2c2cccc(F)c2F)C2CCN1CC2` [Compound 1148], the EC50 [5] was greater than 10 µM.
`O=C(N[C@@H]1CN2CCC1CC2)N1CCc2ccccc2[C@H]1c1ccc(-n2ccnc2)cc1` [Compound 1096] gave an EC50 [3] of 0.45 µM.
Work on `O=C(O[C@@H]1CN2CCC1CC2)N1CCc2ccccc2[C@@H]1c1cccc(F)c1F` [Compound 1015] yielded an EC50 [1] of 0.33 µM and an EC50 [2] of 1.11 µM.
With `O=C(O[C@@H]1CN2CCC1CC2)N1CCc2ccccc2[C@@H]1c1ccc2ncsc2c1` [Compound 1032] the EC50 [1] was greater than 10 µM and the EC50 [2] was 7.88 µM.
With `O=C(O[C@H]1CN2CCC1CC2)N1CCc2ccccc2[C@@H]1c1ccccc1` [Solifenacin, solifenacin, reference compound] the “secretion of progranulin from mouse BV2 cells” value (mouse BV2 cells) was “causes the secretion of progranulin from mouse BV2 cells”.
Compound `O=C(N[C@@H]1CN2CCC1CC2)N1CCc2ccccc2[C@@H]1c1ccc(-n2cncn2)cc1` [Compound 1101] has an EC50 [3] of 3.85 µM.
`O=C(N[C@@H]1CN2CCC1CC2)N1CCc2ccccc2[C@H]1c1ccc2nccn2c1` [Compound 1080] was tested, and the EC50 [3] was greater than 10 µM.
With `O=C(N[C@@H]1CN2CCC1CC2)N1CCc2ccccc2[C@H]1c1ccc(F)cc1` [Compound 1071] the EC50 [4] was 0.41 µM.
With `COc1cc([C@H]2c3ccccc3CCN2C(=O)O[C@@H]2CN3CCC2CC3)ccn1` [Compound 1008] the EC50 [1] was greater than 10 µM.
In the case of `O=S(=O)(C[C@@H]1CN2CCC1CC2)N1CCc2ccccc2[C@@H]1c1ccccc1` [Compound 1140], the EC50 [6] is reported as greater than 10 µM.
`O=C(O[C@@H]1CN2CCC1CC2)N1CCc2ccccc2[C@H]1c1ccnc(O)c1` [Compound 1003] was tested, and the EC50 [1] was greater than 10 µM.
